4 molecules from US12097188B2, “Compositions and methods for the treatment of macular degeneration” (Aldeyra Therapeutics, Inc., priority 2009, dated 2024) can be followed below.

Series [1] relates to visual cycle. Briefly: Functional biological activity in the retina: visual cycle inhibition / dark adaptation rate by ERG. The note with it: for effect on normal function of the retina: mouse, in vivo.
Description: (§2) The protocol for measuring DA rates by ERG is based on the kinetics of functional visual recovery from photo-bleaching of visual pigment by brief exposure to extremely bright light.
(§3) A retinoid useful for this purpose is 13-cis-retinoic acid (RA, also known as isotretinoin).
Another series concerns A2E formation. Kind of series: A2E formation in the abcr -/- mouse after repeated IP dosing. It is filed as in vivo. The note with it: 10 mg/kg IP, repeated daily for 56 days, p<0.01. From the text:
(§1) The target tissue, for the biological activity of compounds which reversibly react with RAL, e.g. Compounds A, B and C, is the outer segment of retinal photoreceptor cells.

A short description of series [2]: Ocular levels of 14C-Compound A in the retina and RPE of rabbits (LSC). It is filed as in vivo, Dutch belted rabbits. Conditions: for Amount of 14C-compound A in retina and RPE at tmax: rabbit, single 40 μL TO eyedrop, mean of 6 eyes. As for the experimental part:
Dutch belted rabbits were dosed TO with a single 40 μL eyedrop containing either 0.50%, 0.15% or 0.05% weight/volume ^14C-Compound A in 20%, 6% or 2% weight/volume, respectively, β-cyclodextrin sulfobutylether sodium salt in phosphate-buffered saline (Table 1). At different times after dosing the eyes of the rabbits were enucleated, dissected and the amount of ^14C-Compound A in the retina and RPE together was measured by LSC. Each value represents the mean value from 6 eyes.

Another series is described as follows: in vivo. The arrangement: species or system C57BL/6 mice. The note with it: ip, 10 mg/kg.
Description: as §1

Series [3] has as its system visual cycle. Conditions: mouse, in vivo.
Description: as §2, §3

Where two headings read alike, the source gives them in different places.

By Cmax is commonly meant the highest concentration seen after dosing.

Regarding `CC1=C(/C=C/C(C)=C/C=C/C(C)=C\C(=O)O)C(C)(C)CCC1` [RA, 13-cis-retinoic acid, reference compound], in the series on visual cycle [1] (mice, IP 20 mg/kg (FIG. 3)), the visual cycle inhibition result is “show visual cycle inhibition”. Besides, the “inhibition of dark adaptation (DA)” value in the series on visual cycle [1] (mice, TO one or two 30 μL eyedrops, 0.2% w/v RA in 20% w/v β-cyclodextrin sulfobutylether sodium salt in PBS (FIG. 3)) is recorded as “dose-responsive inhibition of DA similar to that observed after IP dosing”.
For `CC(C)(O)c1cc2oc(-c3ccccc3)nc2cc1N` [C], the “effect on normal function of the retina” value in the series with visual cycle [1] is “do not alter the normal function of the retina”.
Take `CC(C)(O)c1nc2ccc(Cl)cc2cc1N` [Compound A]: the “reduction of A2E formation” value in the series with A2E formation is recorded as 71%. For the same molecule, the “Amount of 14C-compound A in retina and RPE at tmax” value in series [2] (0.05% w/v in 2% w/v βCSSA) came out at 23.1 ng/g; in series [2] (0.15% w/v in 6% w/v βCSSA), 47.0 ng/g; in series [2] (0.50% w/v in 20% w/v βCSSA) it was 131 ng/g. In addition, the “amounts found in rabbit retina/RPE” value in series [2] (within one hour of TO dosing) is recorded as “Significant amounts”. Also, the Cmax in the series “in vivo” (C57BL/6, mouse) amounted to 14400 ng/g. Moreover, the “Tmax in the posterior eyecup” value in the series “in vivo” (mouse) is recorded as “Thirty”. In the series on visual cycle [3], the “effect on normal function of the retina” value is “do not alter the normal function of the retina”. Further, the “effect on rate of dark adaptation (DA)” value with visual cycle [3] is on record as “nor does it slow the rate of dark adaptation”. Moreover, in the series with visual cycle [3], the “inhibition of the visual cycle” value is “does not inhibit the visual cycle”.
In the case of `CC(C)(O)c1cc2nc(-c3ccccc3)oc2cc1N` [B], the “effect on normal function of the retina” value in the series with visual cycle [1] is listed as “do not alter the normal function of the retina”.
